Reference: patent publication US20080200403A1, “9A-Carbamoyl and Thiocarbamoyl Azalides with Anti-Inflammatory Activity” (GLAXOSMITHKLINE, priority 2005, published 2008)
Read-outs that look alike come from different tables or passages of the source.

What was measured:
Format in all cases: cell-based
[1] = system: TNF-α; test: Inhibition of TNF-α production by stimulated human peripheral blood leukocytes in vitro; conditions: PBL; for inhibition at 10 µM / inhibition at 50 µM: Homo sapiens, Leukocyte, read-out: Percentage of inhibition of TNF-α production
Procedure, shortened: (§1)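 Dextran-isolated human PBL (3-5×10^6 per well) in RPMI with 10% FCS were preincubated 2 h at 37 °C with compounds at 50 μM or 10 μM final, then stimulated overnight with 2 μg/mL LPS, 1 μg/mL PMA or 120 μg/mL zymosan. Supernatant cytokines by sandwich ELISA; % inhibition versus stimulated untreated control.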

[2] = system: IL-1α; test: Inhibition of IL-1 production by stimulated human peripheral blood leukocytes in vitro; conditions: PBL; for inhibition at 10 µM / inhibition at 50 µM: Homo sapiens, Leukocyte, read-out: Percentage of inhibition of IL-1α production
[3] = system: IL-6; test: Inhibition of IL-6 production by stimulated human peripheral blood leukocytes in vitro; conditions: PBL; for inhibition at 10 µM / inhibition at 50 µM: Homo sapiens, Leukocyte, read-out: Percentage of inhibition of IL-6 production
Procedure, shortened: as §1

[4] = system: IL-8; test: Inhibition of IL-8 production by stimulated human peripheral blood leukocytes in vitro; conditions: PBL; for inhibition at 10 µM / inhibition at 50 µM: Homo sapiens, Leukocyte, read-out: Percentage of inhibition of IL-8 production
Procedure, shortened: as §1

[5] = system: human peripheral blood mononuclear cells (PBMC); test: Human T-cell proliferation in vitro (3H-thymidine incorporation); conditions: for inhibition at 10 µM / inhibition at 50 µM: Homo sapiens, PBMC, read-out: Percentage of inhibition of proliferation of stimulated PBMC
Method: Influence of substances at two different concentrations (50 μM and 10 μM) on cell proliferation of human peripheral blood mononuclear cells (PBMC) was assessed.
Heparinized peripheral blood was obtained from healthy donors, and PBMC were isolated by Histopaque 1077 (Sigma, USA) density centrifugation at 400×g for 30 minutes. 5×10^4 cells/well were cultured for 3 days in the RPMI medium as described above, in the presence (positive control) or absence (negative control) of stimulators [PHA (2.5 μg/mL) (Sigma, USA), or both PMA (10 ng/mL) (Sigma, USA) and ionomycin (500 ng/mL) (Calbiochem, USA)], and in the presence of the test compounds, at 37° C. in an atmosphere of 5% CO2 and 90% humidity. The cells were pulsed with 1 μCi of ^3H-thymidine (Amersham, USA) per well during the last 18 h of the culture, and were harvested on the 96-well filter (Packard Bioscience, USA) using a multiple cell harvester (Packard, USA). The incorporation of ^3H-thymidine in activated cells were measured using TopCount NXT (Packard, USA).
Inhibition (as percentage) was calculated using the following formula: % inhibition=(1−(^3H)thymidine incorporation expressed in counts per minute (cpm) in sample/(^3H)thymidine incorporation expressed in cpm in positive control)×100
where positive control refers to stimulated samples, not treated with substances.

[6] = system: A549; test: MTT cytotoxicity assay on A549 cell line; conditions: A549, 24 h
Method: To determine whether the anti-inflammatory activity of the test compounds was due to observed inhibition of cytokine production and inhibition of proliferation in vitro, and was not a consequence of cellular cytotoxicity, measurement of succinate dehydrogenase activity in living cells was performed. Cells were cultured for 24 h in RPMI medium as described above at 37° C. in the presence of the test compounds at concentrations of 50 μM and 12.5 μM. MTT [3-(4,5-dimethylthiazole-2-yl)-2,5-diphenyl tetrazolium bromide] (Promega, USA), a detection reagent, was then added and the cultures were incubated for 0.5-2 h. The amount of MTT-Formazan produced was determined using a spectrophotometer at 490 nm (Mosmann, J. Imnunol. Methods, 1983, 65: 55-63). Percentage of viable cells was calculated using the following formula:
% viable cells=([…]OD490 treated cells/OD490 nontreated cells)×100

[7] = zymosan stimulated, compound 10 μM
[8] = zymosan stimulated, compound 50 μM
[9] = PMA + ionomycin stimulated, compound 10 μM
[10] = PMA + ionomycin stimulated, compound 50 μM

SMILES: CC[C@H]1OC(=O)[C@H](C)[C@@H](O[C@H]2C[C@@](C)(OC)[C@@H](O)[C@H](C)O2)[C@H](C)[C@@H](O[C@@H]2O[C@H](C)C[C@H](N(C)C)[C@H]2O)[C@](C)(O)C[C@@H](C)CN(C(=S)Nc2cccc(C(F)(F)F)c2)[C@H](C)[C@@H](O)[C@]1(C)O [Compound 4]
- inhibition at 10 µM ([1]; LPS stimulated, compound 10 μM): 39%
- inhibition at 50 µM ([1]; LPS stimulated, compound 50 μM): 100%
- inhibition at 10 µM ([1]; PMA stimulated, compound 10 μM): 50%
- inhibition at 50 µM ([1]; PMA stimulated, compound 50 μM): 100%
- inhibition at 10 µM [1, 7]: 36%
- inhibition at 50 µM [1, 8]: 97%
- inhibition at 10 µM ([2]; LPS stimulated, compound 10 μM): 74%
- inhibition at 50 µM ([2]; LPS stimulated, compound 50 μM): 82%
- inhibition at 10 µM ([2]; PMA stimulated, compound 10 μM): 54%
- inhibition at 50 µM ([2]; PMA stimulated, compound 50 μM): 92%
- inhibition at 10 µM [2, 7]: 60%
- inhibition at 50 µM [2, 8]: 13%
- inhibition at 10 µM ([3]; LPS stimulated, compound 10 μM): 38%
- inhibition at 50 µM ([3]; LPS stimulated, compound 50 μM): 100%
- inhibition at 10 µM [3, 7]: 0%
- inhibition at 50 µM [3, 8]: 100%
- inhibition at 10 µM ([4]; LPS stimulated, compound 10 μM): 41%
- inhibition at 50 µM ([4]; LPS stimulated, compound 50 μM): 100%
- inhibition at 10 µM ([4]; PMA stimulated, compound 10 μM): 52%
- inhibition at 50 µM ([4]; PMA stimulated, compound 50 μM): 100%
- inhibition at 10 µM [4, 7]: 0%
- inhibition at 50 µM [4, 8]: 52%
- inhibition at 10 µM ([5]; PHA stimulated, compound 10 μM): 30%
- inhibition at 50 µM ([5]; PHA stimulated, compound 50 μM): 102%
- inhibition at 10 µM [5, 9]: 50%
- inhibition at 50 µM [5, 10]: 100%

SMILES: CCC1OC(=O)C(C)C(OC2CC(C)(OC)C(O)C(C)O2)C(C)C(OC2OC(C)CC(N(C)C)C2O)C(C)(O)CC(C)CN(C(=S)Nc2cccc(F)c2)C(C)C(O)C1(C)O (centres unmarked) [Compound 3]
- Percentage of inhibition of TNF-α production ([1]; LPS stimulated, compound 10 μM): 45%
- Percentage of inhibition of TNF-α production ([1]; LPS stimulated, compound 50 μM): 74%
- Percentage of inhibition of TNF-α production ([1]; PMA stimulated, compound 10 μM): 37%
- Percentage of inhibition of TNF-α production ([1]; PMA stimulated, compound 50 μM): 75%
- Percentage of inhibition of TNF-α production [1, 7]: 71%
- Percentage of inhibition of TNF-α production [1, 8]: 94%
- Percentage of inhibition of IL-1α production ([2]; LPS stimulated, compound 10 μM): 52%
- Percentage of inhibition of IL-1α production ([2]; LPS stimulated, compound 50 μM): 30%
- Percentage of inhibition of IL-1α production ([2]; PMA stimulated, compound 10 μM): 4%
- Percentage of inhibition of IL-1α production ([2]; PMA stimulated, compound 50 μM): 0%
- Percentage of inhibition of IL-1α production [2, 7]: 75%
- Percentage of inhibition of IL-1α production [2, 8]: 74%
- Percentage of inhibition of IL-6 production ([3]; LPS stimulated, compound 10 μM): 13%
- Percentage of inhibition of IL-6 production ([3]; LPS stimulated, compound 50 μM): 79%
- Percentage of inhibition of IL-6 production ([3]; PMA stimulated, compound 10 μM): 24%
- Percentage of inhibition of IL-6 production ([3]; PMA stimulated, compound 50 μM): 9%
- Percentage of inhibition of IL-6 production [3, 7]: 59%
- Percentage of inhibition of IL-6 production [3, 8]: 81%
- Percentage of inhibition of IL-8 production ([4]; LPS stimulated, compound 10 μM): 38%
- Percentage of inhibition of IL-8 production ([4]; LPS stimulated, compound 50 μM): 81%
- Percentage of inhibition of IL-8 production ([4]; PMA stimulated, compound 10 μM): 61%
- Percentage of inhibition of IL-8 production ([4]; PMA stimulated, compound 50 μM): 47%
- Percentage of inhibition of IL-8 production [4, 7]: 40%
- Percentage of inhibition of IL-8 production [4, 8]: 88%
- Percentage of inhibition of proliferation of stimulated PBMC ([5]; PHA stimulated, compound 10 μM): 26%
- Percentage of inhibition of proliferation of stimulated PBMC ([5]; PHA stimulated, compound 50 μM): 100%
- Percentage of inhibition of proliferation of stimulated PBMC [5, 9]: 23%
- Percentage of inhibition of proliferation of stimulated PBMC [5, 10]: 92%
- Percentage of viable cells after treatment ([6]; compound 12.5 μM): 100%
- Percentage of viable cells after treatment ([6]; compound 50 μM): >90%
